According to ChEMBL document CHEMBL1201862, “PubChem BioAssay data set” (2004):
The source made the active and inactive calls.

Legend:
[1] = molecular target: T1, Sentrin-specific protease 8 (Homo sapiens, UniProt Q96LD8); type: functional
T1 sequence (Q96LD8 whole entry): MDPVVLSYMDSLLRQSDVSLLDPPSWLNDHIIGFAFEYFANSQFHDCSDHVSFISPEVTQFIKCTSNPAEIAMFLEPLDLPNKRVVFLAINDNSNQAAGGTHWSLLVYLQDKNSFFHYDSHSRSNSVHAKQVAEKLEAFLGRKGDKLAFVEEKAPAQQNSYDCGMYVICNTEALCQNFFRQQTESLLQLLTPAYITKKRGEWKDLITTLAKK

[2] = molecular target: T1, Sentrin-specific protease 8; type: functional; remark: listed apart in the source
Streptokinase A = molecular target: T2, Streptokinase A (Streptococcus pyogenes serotype M1, UniProt P10520); experiment: viability-normalized secreted streptokinase activity reduction – plasminogen activation absorbance, OD405, dose response (AID 1914); type: functional, Streptococcus pyogenes M1 GAS;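 note: secreted streptokinase activity via plasminogen activation per viability signal from cell pellet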
T2 sequence (P10520 whole entry): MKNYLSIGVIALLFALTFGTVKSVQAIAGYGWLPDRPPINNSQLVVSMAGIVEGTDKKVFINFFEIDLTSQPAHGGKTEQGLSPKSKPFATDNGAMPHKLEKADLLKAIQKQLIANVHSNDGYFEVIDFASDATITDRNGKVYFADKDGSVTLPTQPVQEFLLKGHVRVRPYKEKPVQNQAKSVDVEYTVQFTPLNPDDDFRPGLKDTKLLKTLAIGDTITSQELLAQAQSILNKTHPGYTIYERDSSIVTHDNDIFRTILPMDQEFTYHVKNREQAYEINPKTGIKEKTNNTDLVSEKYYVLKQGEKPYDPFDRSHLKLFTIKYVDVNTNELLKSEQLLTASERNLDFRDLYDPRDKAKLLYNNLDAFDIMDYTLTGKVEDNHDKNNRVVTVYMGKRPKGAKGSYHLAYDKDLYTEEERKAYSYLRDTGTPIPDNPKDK

[3] = test system: Streptococcus sp. 'group A'; experiment: Streptococcus pyogenes SK(-)GAS viability under kanamycin – luminescence, BacTiterGlo, confirmation, counter-screen for streptokinase expression inhibitor project, dose response (AID 1900); type: functional, organism-based
BJ = experiment: cells; type: functional, cell-based; conditions: Homo sapiens
[4] = DRD fibroblast viability loss – cell-based, non-viral oncogenic, luminescence, dose response (AID 1934); type: functional; conditions: Homo sapiens
[5] = Trypanosoma cruzi growth suppression in host cells – NIH3T3 host cells, beta-gal luminescence, confirmation (AID 2044); type: functional, cell-based;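 note: intracellular parasites grown in NIH/3T3 mouse fibroblasts as host cells; luminescent beta-galactosidase reporter signal from transgenic T. cruzi replicating inside host cells; inhibitors lower the luminescence signal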
Mu-type opioid receptor = Mu-type opioid receptor (Homo sapiens, UniProt P35372); experiment: HTS Image-Based Screen for Agonists of the MOR Receptor. [Related pubchem assays (depositor defined):AID1777, AID1785, AID1786, AID2133]; type: functional;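 note: imaging of beta-arrestin GFP recruitment into spots after receptor activation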
Sequence of Mu-type opioid receptor (P35372 whole entry): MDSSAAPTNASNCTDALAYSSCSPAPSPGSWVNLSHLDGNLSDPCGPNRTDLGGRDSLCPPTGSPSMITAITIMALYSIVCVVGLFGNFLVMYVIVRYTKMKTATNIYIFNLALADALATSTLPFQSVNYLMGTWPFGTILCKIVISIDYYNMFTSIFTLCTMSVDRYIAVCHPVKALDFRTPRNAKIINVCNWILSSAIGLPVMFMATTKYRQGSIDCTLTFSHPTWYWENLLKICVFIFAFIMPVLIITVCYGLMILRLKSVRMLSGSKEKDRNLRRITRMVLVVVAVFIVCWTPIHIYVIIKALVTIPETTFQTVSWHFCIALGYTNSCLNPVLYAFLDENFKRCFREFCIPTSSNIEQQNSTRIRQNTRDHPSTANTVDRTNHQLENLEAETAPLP

[6] = non-specific 3'UTR reporter inhibition in Clone20-Shn3RL – cell-based, Renilla luciferase, cherry-picked, counter-screen for Shn3 inhibitor project, dose response (AID 624133); type: functional
Caspase-6 = molecular target: T3, Caspase-6 (Homo sapiens, UniProt P55212); experiment: inhibition of CASP6 peptide cleavage – biochemical, VEID-R110 fluorescence, cherry-pick, dose response (AID 720632)
T3 sequence (P55212 whole entry): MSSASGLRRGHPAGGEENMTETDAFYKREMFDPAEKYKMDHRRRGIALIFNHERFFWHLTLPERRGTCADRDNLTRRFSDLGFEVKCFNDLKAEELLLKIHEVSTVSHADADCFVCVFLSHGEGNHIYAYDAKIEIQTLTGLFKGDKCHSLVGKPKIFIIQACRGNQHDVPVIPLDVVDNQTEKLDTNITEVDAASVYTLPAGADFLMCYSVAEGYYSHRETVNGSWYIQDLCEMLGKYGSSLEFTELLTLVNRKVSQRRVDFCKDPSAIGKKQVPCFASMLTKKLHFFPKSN

[7] = molecular target: T1, Sentrin-specific protease 8; type: functional; remark: listed apart in the source
[8] = molecular target: T4, Sentrin-specific protease 7 (Homo sapiens, UniProt Q9BQF6); type: functional;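 note: Luminescence-based dose-response confirmation of ultra-high-throughput screening hits, measuring inhibition of SENP7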
T4 sequence (Q9BQF6 whole entry): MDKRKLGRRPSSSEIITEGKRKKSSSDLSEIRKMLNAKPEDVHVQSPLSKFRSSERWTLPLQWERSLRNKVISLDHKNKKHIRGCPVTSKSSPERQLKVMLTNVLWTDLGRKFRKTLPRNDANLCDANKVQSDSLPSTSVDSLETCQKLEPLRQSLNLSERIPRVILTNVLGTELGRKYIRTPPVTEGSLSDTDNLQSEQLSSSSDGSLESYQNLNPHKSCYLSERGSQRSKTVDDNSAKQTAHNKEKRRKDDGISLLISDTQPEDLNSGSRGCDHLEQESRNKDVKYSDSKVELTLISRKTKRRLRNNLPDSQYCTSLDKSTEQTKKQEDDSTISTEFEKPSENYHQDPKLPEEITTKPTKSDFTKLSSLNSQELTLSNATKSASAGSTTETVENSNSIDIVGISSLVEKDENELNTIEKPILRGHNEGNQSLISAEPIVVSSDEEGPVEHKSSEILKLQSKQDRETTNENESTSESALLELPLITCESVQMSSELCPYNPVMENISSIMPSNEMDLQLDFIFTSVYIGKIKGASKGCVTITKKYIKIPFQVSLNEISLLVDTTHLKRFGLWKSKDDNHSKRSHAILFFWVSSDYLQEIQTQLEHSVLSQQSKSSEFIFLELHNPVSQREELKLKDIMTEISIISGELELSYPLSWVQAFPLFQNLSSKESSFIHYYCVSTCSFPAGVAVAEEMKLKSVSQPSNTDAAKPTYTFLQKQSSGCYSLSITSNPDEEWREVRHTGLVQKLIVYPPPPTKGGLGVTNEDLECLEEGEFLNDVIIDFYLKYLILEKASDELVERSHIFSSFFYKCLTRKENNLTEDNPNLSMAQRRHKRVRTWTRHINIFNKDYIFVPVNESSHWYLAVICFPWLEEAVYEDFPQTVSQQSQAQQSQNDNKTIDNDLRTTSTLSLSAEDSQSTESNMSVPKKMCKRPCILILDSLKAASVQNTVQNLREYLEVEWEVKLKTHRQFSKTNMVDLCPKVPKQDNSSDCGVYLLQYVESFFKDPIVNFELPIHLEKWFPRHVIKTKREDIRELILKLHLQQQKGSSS

[9] = molecular target: Transitional endoplasmic reticulum ATPase (Homo sapiens, UniProt P55072); experiment: p97 ATPase inhibitors, dose response, biochemical (AID 1534)
Sequence of Transitional endoplasmic reticulum ATPase (P55072 whole entry): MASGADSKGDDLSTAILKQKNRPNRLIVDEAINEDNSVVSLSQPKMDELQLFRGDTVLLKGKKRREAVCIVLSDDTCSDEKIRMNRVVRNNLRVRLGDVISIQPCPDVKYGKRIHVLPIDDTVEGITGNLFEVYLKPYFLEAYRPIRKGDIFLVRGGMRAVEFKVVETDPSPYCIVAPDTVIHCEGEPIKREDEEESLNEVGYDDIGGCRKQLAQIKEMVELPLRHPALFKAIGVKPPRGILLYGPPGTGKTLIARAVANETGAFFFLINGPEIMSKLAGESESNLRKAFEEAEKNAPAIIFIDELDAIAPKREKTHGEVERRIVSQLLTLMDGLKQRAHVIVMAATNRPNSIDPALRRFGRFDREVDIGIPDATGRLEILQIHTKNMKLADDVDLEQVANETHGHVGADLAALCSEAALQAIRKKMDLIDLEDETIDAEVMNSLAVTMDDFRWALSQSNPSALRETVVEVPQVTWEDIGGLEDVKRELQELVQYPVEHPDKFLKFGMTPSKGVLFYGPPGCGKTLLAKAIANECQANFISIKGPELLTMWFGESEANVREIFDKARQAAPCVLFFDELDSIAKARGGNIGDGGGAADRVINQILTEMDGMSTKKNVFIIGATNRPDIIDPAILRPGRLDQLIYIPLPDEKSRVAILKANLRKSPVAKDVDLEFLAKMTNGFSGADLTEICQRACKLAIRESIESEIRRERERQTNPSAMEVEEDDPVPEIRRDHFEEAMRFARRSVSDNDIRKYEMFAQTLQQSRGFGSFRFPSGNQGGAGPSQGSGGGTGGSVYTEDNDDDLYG

Phospholipase A2 = Phospholipase A2 (Homo sapiens, UniProt P04054); type: functional;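 note: confirmatory dose-response counterscreen on phospholipase A2, testing hits that came from an ultra-high-throughput screen for ATG4B inhibitors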
Sequence of Phospholipase A2 (P04054 whole entry): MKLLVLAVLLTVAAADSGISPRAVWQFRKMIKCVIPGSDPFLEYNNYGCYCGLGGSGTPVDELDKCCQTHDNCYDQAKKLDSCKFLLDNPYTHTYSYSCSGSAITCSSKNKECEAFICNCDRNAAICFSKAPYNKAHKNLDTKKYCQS

[10] = molecular target: Sphingosine 1-phosphate receptor 1 (Homo sapiens, UniProt P21453); type: functional;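 note: Tango beta-arrestin reporter U2OS cells stimulated with S1P near its EC80; inhibitor potency meaning antagonism of receptor activation by the natural agonist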
Sequence of Sphingosine 1-phosphate receptor 1 (P21453 whole entry, the tested form may be a part): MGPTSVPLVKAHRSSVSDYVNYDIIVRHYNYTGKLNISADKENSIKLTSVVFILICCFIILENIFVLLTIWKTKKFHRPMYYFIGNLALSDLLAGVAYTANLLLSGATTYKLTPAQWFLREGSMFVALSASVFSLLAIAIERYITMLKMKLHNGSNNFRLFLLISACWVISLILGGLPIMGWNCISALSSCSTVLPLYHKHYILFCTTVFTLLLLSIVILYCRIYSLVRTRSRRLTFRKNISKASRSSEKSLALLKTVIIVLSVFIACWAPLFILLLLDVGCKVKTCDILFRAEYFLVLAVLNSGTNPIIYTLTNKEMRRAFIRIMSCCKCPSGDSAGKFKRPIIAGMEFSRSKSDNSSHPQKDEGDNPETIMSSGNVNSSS

[11] = viability loss in CEM21 cells – cell-based, CellTiter-Glo luminescence, cherry-picked, cytotoxicity control for viral fusion inhibitor project, dose response (AID 652042); type: functional;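 note: potency for signal decrease meaning cytotoxicity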
[12] = off-target signal loss in HeLa-CEM21 co-culture – HeLa F-luc CTL cells, cherry-picked, counter-screen for HIV-1 Env fusion inhibitor project, dose response (AID 652040); type: functional, cell-based;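 note: potency for signal decrease marking cytotoxic or nonspecific inhibition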
[13] = blockers of HIV-1 envelope-mediated cell-cell fusion – cherry-pick, dose response (AID 652057); type: functional, cell-based

SMILES: O=C1c2cc(F)ccc2-n2c1nc1ccccc1c2=O
- IC50 [1]: 0.962 µM (active)
- IC50 [2]: 0.985 µM (active)

SMILES: CCOC(=O)C1=C(c2ccc(OC)cc2)C(=O)c2ccccc2C1=O
- EC50 (Streptokinase A): > 150 µM (not active)
- EC50 [3]: 1.51 µM (active)

SMILES: COCCCNC(=O)c1ccc2c3c(onc13)-c1ccccc1C2=O
- EC50 (BJ): > 150 µM (not active)
- EC50 [4]: 8.59 µM (active)

SMILES: O=C1C=C(N(CCO)Cc2ccccc2)c2ccccc2C1=O
- EC50 [5]: > 30 µM (not active)

SMILES: CCC(=O)OCCNc1cc(Sc2nccn2C)c2nonc2c1[N+](=O)[O-]
- EC50 [5]: 1.97 µM (active)
- EC50 (Mu-type opioid receptor): > 32 µM (inactive)
- AC50 [6]: 4.16 µM (active)

SMILES: CCCCn1c(NC(=O)c2ccccc2Cl)c(C#N)c2nc3ccccc3nc21
- AC50 (Caspase-6): 14.1 µM (active)
- IC50 [7]: 1.99 µM (active)
- IC50 [8]: 2.96 µM (active)
- IC50 [9]: > 50 µM (not active)

SMILES: CCc1ccc(OCC(=O)N/N=C2\CC(=O)c3ccccc32)cc1
- IC50 [7]: 8.49 µM (active)
- IC50 [8]: > 100 µM (inactive)

SMILES: O=C1C(=O)c2ccccc2-c2ccccc21 [9,10-PHENANTHRENEQUINONE]
- EC50 (BJ): 5.99 µM (inconclusive)
- IC50 (Phospholipase A2): 42.8 µM (inactive)
- IC50 [10]: 5.02 µM (active)
- AC50 [11]: 1.93 µM (active)
- AC50 [12]: 3.04 µM (active)
- EC50 [3]: 1.33 µM (active)
- IC50 [9]: > 50 µM (not active)
- AC50 [13]: 4.53 µM (active)
- EC50 [4]: 4.95 µM (inconclusive)
